Test system: Palmitoyl CoA oxidation
Assay: Palmitoyl CoA oxidation in isolated rat heart mitochondria
Type: biochemical
Settings: 1-C14 palmitoyl CoA, 15 min at 30° C., read-out: PalmCoA IC50
Method: Rat heart mitochondria were isolated by the method of Nedergard and Cannon (Methods in Enzymol. 55, 3, 1979).
Palmitoyl CoA oxidation—The Palmityl CoA oxidation was carried out in a total volume of 100 micro liters containing the following agents: 110 mM KCl, 33 mM Tris buffer at pH 8, 2 mM KPi, 2 mM MgCl2, 0.1 mM EDTA, 14.7 microM defatted BSA, 0.5 mM malic acid, 13 mM carnitine, 1 mM ADP, 52 micrograms of mitochondrial protein, and 16 microM 1-C14 palmitoyl CoA (Sp. Activity 60 mCi/mmole; 20 microCi/ml, using 5 microliters per assay). The compounds of this invention were added in a DMSO solution at the following concentrations: 100 micro molar, 30 micro molar, and 3 micro molar. In each assay, a DMSO control was used. After 15 min at 30° C., the enzymatic reaction was centrifuged (20,000 g for 1 min), and 70 microliters of the supernatant was added to an activated reverse phase silicic acid column (approximately 0.5 ml of silicic acid). The column was eluted with 2 ml of water, and 0.5 ml of the eluent was used for scintillation counting to determine the amount of C^14 trapped as C^14 bicarbonate ion.

IC50: 0.15 µM
SMILES: Cc1nc2cc(OC[C@H](O)CN3CCN(CC(=O)Nc4cccc5c4CCC5)CC3)ccc2s1 [2-{4-[(2R)-2-hydroxy-3-(2-methylbenzothiazol-5-yloxy)propyl]piperazinyl}-N-indan-4-ylacetamide]

Reference: US7407960B2, “Substituted heterocyclic compounds” (CV Therapeutics, Inc., priority 2002, dated 2008)
